Test results reported in ChEMBL document CHEMBL1201862, “PubChem BioAssay data set” (2004).
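Briefly, cells in 96-well plates were exposed to five compound concentrations for 48 h, and endpoints were estimated by linear interpolation. GI50: concentration for 50% inhibition of growth.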 Active and inactive are the calls of the source. Rule as the data show it: active = GI50 up to about 1.1 µM and inactive = higher.

Legend:
Test in all cases: growth of human tumour cells (NCI), 48 h
[1] = test system: UACC-62
[2] = test system: SNB-75
[3] = test system: NCI-H226
[4] = test system: RPMI-8226
[5] = test system: LOX IMVI
[6] = test system: M14
[7] = test system: CAKI-1
[8] = test system: SK-OV-3
[9] = test system: SK-MEL-28
[10] = test system: CCRF-CEM
[11] = test system: U-251
[12] = test system: HOP-92
[13] = test system: SNB-19
[14] = test system: COLO 205
[15] = test system: SK-MEL-5
[16] = test system: HL-60
[17] = test system: UACC-257
[18] = test system: SF-295
[19] = test system: HCT-15
[20] = test system: UO-31

SMILES	GI50 [1]	GI50 [2]	GI50 [3]	GI50 [4]	GI50 [5]	GI50 [6]	GI50 [7]	GI50 [8]	GI50 [9]	GI50 [10]	GI50 [11]	GI50 [12]	GI50 [13]	GI50 [14]	GI50 [15]	GI50 [16]	GI50 [17]	GI50 [18]	GI50 [19] [µM]	GI50 [20]
COc1cc(C(=O)Nc2cccc3ccccc23)c(Br)c(OC)c1OC	45.2 µM (inactive)	62.2 µM (inactive)	36.3 µM (inactive)	42.8 µM (inactive)	80 µM (inactive)	> 100 µM (inactive)	> 100 µM (inactive)	> 100 µM (inactive)	89.9 µM (inactive)	33.9 µM (inactive)	> 100 µM (inactive)	42.2 µM (inactive)	> 100 µM (inactive)	> 100 µM (inactive)	41.1 µM (inactive)	24.2 µM (inactive)	> 100 µM (inactive)	> 100 µM (inactive)	> 100	31.4 µM (inactive)
O=C(CCCN1CCC2(CC1)C(=O)NC(=O)N2c1ccccc1)c1ccc(F)cc1	> 100 µM (inactive)	> 100 µM (inactive)	> 100 µM (inactive)	> 100 µM (inactive)	> 100 µM (inactive)	> 100 µM (inactive)	> 100 µM (inactive)	> 100 µM (inactive)	> 100 µM (inactive)	> 100 µM (inactive)	> 100 µM (inactive)	> 100 µM (inactive)	> 100 µM (inactive)	> 100 µM (inactive)	> 100 µM (inactive)	> 100 µM (inactive)	> 100 µM (inactive)	> 100 µM (inactive)	> 100	> 100 µM (inactive)
Nc1ncc2c(n1)-c1ccccc1OC2N1CCOCC1 (centres undefined)	> 100 µM (inactive)	59.7 µM (inactive)	> 100 µM (inactive)	> 100 µM (inactive)	> 100 µM (inactive)	> 100 µM (inactive)	> 100 µM (inactive)	> 100 µM (inactive)	> 100 µM (inactive)	> 100 µM (inactive)	> 100 µM (inactive)	> 100 µM (inactive)	> 100 µM (inactive)	> 100 µM (inactive)	> 100 µM (inactive)	44.5 µM (inactive)	> 100 µM (inactive)	> 100 µM (inactive)	> 100	> 100 µM (inactive)
O=[N+]([O-])c1cc(-[n+]2cc([O-])on2)ccc1F	17.1 µM (inactive)	13.7 µM (inactive)	23.4 µM (inactive)	8.97 µM (inactive)	14.9 µM (inactive)	16.1 µM (inactive)	2.11 µM (inactive)	20.4 µM (inactive)	15.4 µM (inactive)	11.8 µM (inactive)	18.1 µM (inactive)	16.9 µM (inactive)	7.82 µM (inactive)	17.7 µM (inactive)	15 µM (inactive)	22.6 µM (inactive)	16.8 µM (inactive)	17.3 µM (inactive)	20.3	3.58 µM (inactive)
CC[C@]1(Cc2ccc(OC)c(OC)c2)CN(S(=O)(=O)c2ccc(C)cc2)C[C@@H]1OC(C)=O	> 100 µM (inactive)	41.9 µM (inactive)	> 100 µM (inactive)	> 100 µM (inactive)	> 100 µM (inactive)	> 100 µM (inactive)	95.7 µM (inactive)	64.6 µM (inactive)	> 100 µM (inactive)	> 100 µM (inactive)	65.6 µM (inactive)	40.4 µM (inactive)	> 100 µM (inactive)	> 100 µM (inactive)	> 100 µM (inactive)	> 100 µM (inactive)	> 100 µM (inactive)	38.5 µM (inactive)	> 100	> 100 µM (inactive)
O=C(/C=C1\Nc2ccc([N+](=O)[O-])cc2N\C1=C/C(=O)c1ccc(F)cc1)c1ccc(F)cc1	29.4 µM (inactive)	15.7 µM (inactive)	27.1 µM (inactive)	20.9 µM (inactive)	> 100 µM (inactive)	> 100 µM (inactive)	48.1 µM (inactive)	17.9 µM (inactive)	> 100 µM (inactive)	8.81 µM (inactive)	10.2 µM (inactive)	35.1 µM (inactive)	23.1 µM (inactive)	> 100 µM (inactive)	78.5 µM (inactive)	20.7 µM (inactive)	> 100 µM (inactive)	14.9 µM (inactive)	64.7	> 100 µM (inactive)
CN1CCN(c2n[nH]c(=O)c3c2nnn3C2CCCCC2)CC1	> 100 µM (inactive)	> 100 µM (inactive)	> 100 µM (inactive)	> 100 µM (inactive)	> 100 µM (inactive)	> 100 µM (inactive)	> 100 µM (inactive)		> 100 µM (inactive)	> 100 µM (inactive)	> 100 µM (inactive)	> 100 µM (inactive)	> 100 µM (inactive)	> 100 µM (inactive)	> 100 µM (inactive)	> 100 µM (inactive)	> 100 µM (inactive)	> 100 µM (inactive)	> 100	> 100 µM (inactive)
O=C(OCC1OC(c2nn[nH]n2)C(OC(=O)c2ccccc2)C1OC(=O)c1ccccc1)c1ccccc1 (centres undefined)	53 µM (inactive)	57 µM (inactive)	79.8 µM (inactive)	18.6 µM (inactive)	> 100 µM (inactive)		> 100 µM (inactive)	> 100 µM (inactive)		96.6 µM (inactive)	> 100 µM (inactive)	> 100 µM (inactive)	32.7 µM (inactive)	> 100 µM (inactive)	> 100 µM (inactive)	> 100 µM (inactive)	> 100 µM (inactive)	> 100 µM (inactive)	> 100	> 100 µM (inactive)
O=S(=O)(O)CCCC1S(=O)(=O)OCCOS1(=O)=O	> 100 µM (inactive)	0.745 µM (active)	> 100 µM (inactive)	> 100 µM (inactive)	> 100 µM (inactive)	> 100 µM (inactive)	> 100 µM (inactive)	> 100 µM (inactive)	> 100 µM (inactive)		> 100 µM (inactive)	> 100 µM (inactive)	> 100 µM (inactive)	> 100 µM (inactive)	> 100 µM (inactive)	> 100 µM (inactive)	> 100 µM (inactive)	> 100 µM (inactive)	> 100	> 100 µM (inactive)
O=c1c2cccc3cccc(c4n1CCCN=4)c32	> 100 µM (inactive)	> 100 µM (inactive)	> 100 µM (inactive)	> 100 µM (inactive)	20.1 µM (inactive)	> 100 µM (inactive)	> 100 µM (inactive)	> 100 µM (inactive)	> 100 µM (inactive)	41.6 µM (inactive)	> 100 µM (inactive)	> 100 µM (inactive)		> 100 µM (inactive)	> 100 µM (inactive)	47.5 µM (inactive)	> 100 µM (inactive)	> 100 µM (inactive)	> 100	80.4 µM (inactive)
CC(C)C(Sc1nc(-c2ccccc2)c(-c2ccccc2)[nH]1)C(=O)NN (centres undefined)		> 100 µM (inactive)	> 100 µM (inactive)	> 100 µM (inactive)	> 100 µM (inactive)	> 100 µM (inactive)	> 100 µM (inactive)	> 100 µM (inactive)	> 100 µM (inactive)	31.6 µM (inactive)	> 100 µM (inactive)	73.1 µM (inactive)	> 100 µM (inactive)	> 100 µM (inactive)	> 100 µM (inactive)	31.6 µM (inactive)	> 100 µM (inactive)	74.3 µM (inactive)	> 100	> 100 µM (inactive)
OCCCCn1cnc2c(O)ncnc21	> 100 µM (inactive)	> 100 µM (inactive)	> 100 µM (inactive)	> 100 µM (inactive)	> 100 µM (inactive)	> 100 µM (inactive)	> 100 µM (inactive)		> 100 µM (inactive)	> 100 µM (inactive)		> 100 µM (inactive)	> 100 µM (inactive)	> 100 µM (inactive)	> 100 µM (inactive)	> 100 µM (inactive)	> 100 µM (inactive)	> 100 µM (inactive)	> 100	> 100 µM (inactive)
N#Cc1ccccc1NC(=O)/C(=N\NC(=O)c1ccncc1)C(c1cnc2ccc([N+](=O)[O-])cc2n1)[N+](=O)[O-] (centres undefined)	> 100 µM (inactive)	> 100 µM (inactive)	> 100 µM (inactive)	49 µM (inactive)	84.5 µM (inactive)	67.6 µM (inactive)	> 100 µM (inactive)	> 100 µM (inactive)	> 100 µM (inactive)	56.4 µM (inactive)	> 100 µM (inactive)	86.9 µM (inactive)			63.7 µM (inactive)	> 100 µM (inactive)	> 100 µM (inactive)	> 100 µM (inactive)	78.3	32.1 µM (inactive)
ClCc1nc2ccccc2[nH]1	> 100 µM (inactive)	66.8 µM (inactive)	> 100 µM (inactive)	> 100 µM (inactive)	37.2 µM (inactive)	> 100 µM (inactive)	> 100 µM (inactive)		> 100 µM (inactive)	> 100 µM (inactive)	> 100 µM (inactive)	> 100 µM (inactive)	> 100 µM (inactive)	> 100 µM (inactive)	> 100 µM (inactive)	> 100 µM (inactive)	> 100 µM (inactive)	> 100 µM (inactive)	> 100	> 100 µM (inactive)
